The text below walks through data of ChEMBL document CHEMBL1201862, “PubChem BioAssay data set” (2004).

Structures are written as SMILES.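 All cell lines were grown in 96-well plates and treated with compound for 48 hours. GI50 is the concentration that inhibits growth by half.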 The source made the active and inactive calls. Rule as the data show it: active = GI50 up to about 1.1 µM and inactive = higher. Bounds are passed on as bounds.

Test systems include KM-20L2; SNB-78; DLD-1; M19-MEL; DMS-273; HOP-18; MDA-MB-435; MDA-N.
What all share (test): NCI-60 cell line screen, 48 h

With `C/C(CC(=O)Nc1ccc(C)cc1)=N\NC(N)=S`, the GI50 in the assay on KM-20L2 was > 100 µM (inactive); in the assay with SNB-78, > 100 µM (inactive); with DLD-1, 97.7 µM (inactive); with M19-MEL, > 100 µM (inactive).
For the compound `[N-]=[N+]=NC1(Cc2ccccc2)C(=O)c2cccc3c2N(CCC3)C1=O` (centres undefined), the GI50 in the assay on DMS-273, in the assay on DLD-1, in the assay on HOP-18 and in the assay with M19-MEL was > 100 µM (inactive) in each case.
Take `CC(=O)Oc1cc(-c2oc3cc(OC(C)=O)c(C4OC(CO)C(O)C(O)C4O)c(OC(C)=O)c3c(=O)c2O)c(OC(C)=O)cc1O` (centres undefined): the GI50 in the assay on MDA-MB-435 and in the assay on MDA-N was > 100 µM (inactive) throughout.
With `CC1(C)CN=C(Nc2ccc(F)c(Cl)c2)S1`, the GI50 in the assay on MDA-MB-435 and in the assay with MDA-N was > 100 µM (inactive) each time.
Regarding `CCOC(=O)C1(C#N)OC(=O)c2cnccc21` (centres undefined), the GI50 in the assay on MDA-MB-435 and with MDA-N was > 100 µM (inactive) each time.
Turning to `CC(C)=CCC[C@@H](C)C1=C(O)C(=O)C(C)=C(N)C1=O`, the GI50 with MDA-MB-435 is 41 µM (inactive); in the assay with MDA-N, 24.6 µM (inactive).
For `Cc1ccc(C(=O)Nc2ccc(CP(=O)(O)O)cc2CP(=O)(O)O)cc1NC(=O)Nc1cc(C(=O)Nc2ccc(CP(=O)(O)O)cc2CP(=O)(O)O)ccc1C`, the GI50 with MDA-MB-435 and in the assay with MDA-N was > 100 µM (inactive) throughout.
`Cc1ccc(C2SCC(=O)N2c2ccc(-n3c(-c4ccccc4)nc4ccccc4c3=O)cc2)cc1` (centres undefined): the values for the GI50 with MDA-MB-435 and in the assay with MDA-N were 21.1 µM (inactive) and 20.9 µM (inactive), respectively.
Turning to `C=CCC1=CC2(OC)C(=O)C(OC)(OC)C1C1C(OC)(OC)C(=O)C(OC)=CC12CC=C` (centres undefined), the GI50 in the assay on MDA-MB-435 and with MDA-N was > 100 µM (inactive) throughout.
As to `CC(=O)OCCOCn1c2ccccc2c2c3c(c4c5ccccc5n(COCCOC(C)=O)c4c21)C(=O)N(Cc1ccccc1)C3=O`, the GI50 with DMS-273, with KM-20L2, in the assay with SNB-78, with DLD-1 and in the assay on M19-MEL was > 100 µM (inactive) throughout.
Consider `Cc1ccc([N+](=O)[O-])cc1NC1=NCCO1`, for which the GI50 in the assay with MDA-MB-435 and with MDA-N was > 100 µM (inactive) in each case.
For `CN(Cc1nc2c(N)nc(N)nc2nc1N)c1ccc(C(=O)NC(CCC(=O)O)C(=O)O)cc1` (centres undefined), the GI50 with MDA-MB-435 was 0.0277 µM (active); in the assay with MDA-N it was 0.0442 µM (active).
With `CC(=O)O[C@@H]1[C@H](OC2CCCCC2(c2ccccc2)c2ccccc2)O[N+]([O-])=CC12CCCCC2` (some centres undefined), the GI50 in the assay on MDA-MB-435 was 15.6 µM (inactive); with MDA-N, 20.2 µM (inactive).
`C=CC(O)C#Cc1cnc(OC)nc1OC` (centres undefined): the GI50 in the assay with MDA-MB-435 and with MDA-N was > 100 µM (inactive) throughout.
Regarding `CC12CCC(=O)[C@@]1(C)CCCC2=O` (some centres undefined), in the assay on MDA-N, the GI50 is > 100 µM (inactive).
As for `O=NC1C(Cl)C2CC1C1C(Br)C(Br)CC21` (centres undefined), the GI50 in the assay on MDA-MB-435 is > 100 µM (inactive).
`COc1ccc2/c(=C/c3ccc(N(C)C)cc3)c3cc(-c4ccccc4)[n+](C)n3c2c1`: the GI50 in the assay with MDA-MB-435 was 0.0875 µM (active); in the assay on MDA-N, 0.0889 µM (active).
Turning to `CO/N=C(/C)c1cccc(Nc2nc3ccccc3c3[nH]c4ccccc4c23)c1`, the GI50 in the assay on MDA-MB-435 is 7.41 µM (inactive); with MDA-N, 8.3 µM (inactive).
As for `C[n+]1cc2cc(O)c(O)cc2c2ccc3cc(O)c(O)cc3c21.c1ccncc1`, the GI50 with MDA-MB-435 is 2.46 µM (inactive); in the assay with MDA-N, 3.25 µM (inactive).
Regarding `CC(=O)NNC(=S)N/C=C1/C(=O)C=C(C)OC1=O`, the GI50 with MDA-MB-435 and in the assay on MDA-N was > 100 µM (inactive) throughout.
`NC1CSc2ccccc2NC1=O` (centres undefined): the GI50 with MDA-MB-435 and in the assay on MDA-N was > 100 µM (inactive) each time.
As for `Cc1nc2c(C)c3c([nH]c4ccc(Cl)cc43)c(C)c2c(O)c1C`, the GI50 with DMS-273 is 9.02 µM (inactive); in the assay with SNB-78 it was > 100 µM (inactive); with DLD-1, 14.2 µM (inactive); with MDA-MB-435, 6.34 µM (inactive); with MDA-N, 6.73 µM (inactive); in the assay on HOP-18, 33.8 µM (inactive). In addition, the GI50 in the assay with M19-MEL is 6.18 µM (inactive).
In the case of `Nc1nc(O)c2nc(N)n(Cc3ccccc3)c2n1`, the GI50 in the assay with DMS-273, with KM-20L2, in the assay on DLD-1 and with M19-MEL was > 100 µM (inactive) in each case.
As to `Cc1ccc(S(=O)(=O)OC(c2ccc(Cl)cc2Cl)C2OC(=O)c3ccccc32)cc1` (centres undefined), the GI50 is 75.5 µM (inactive) in the assay with DMS-273, 32.7 µM (inactive) in the assay on KM-20L2, > 100 µM (inactive) in the assay on SNB-78 and > 100 µM (inactive) with M19-MEL.
For `Clc1c(Cl)c(Cl)c2c(nnn2C2CCCO2)c1Cl` (centres undefined), the GI50 is 34.1 µM (inactive) in the assay on MDA-MB-435 and 27.7 µM (inactive) in the assay on MDA-N.
Take `CCOc1ccc(C2c3[nH]c4ccccc4c3CCN2C(=O)c2cccs2)cc1` (centres undefined): the values for the GI50 in the assay with MDA-MB-435 and in the assay on MDA-N were 6.61 µM (inactive) and 6.55 µM (inactive), respectively.
With `S=C(Nc1ccc2c(c1)oc1ccccc12)c1cccnc1`, the GI50 with MDA-MB-435 and in the assay on MDA-N was > 100 µM (inactive) each time.
In the case of `Cc1cn(CCOCCOC(=O)NC(CCCNC(N)=O)C(=O)O)c(=O)[nH]c1=O` (centres undefined), the GI50 with MDA-MB-435 and in the assay on MDA-N was > 100 µM (inactive) each time.
For the compound `C=CCOC(=O)Cn1cnc2c(N)ncnc21`, the GI50 in the assay with MDA-MB-435 and with MDA-N was > 100 µM (inactive) each time.
In the case of `CCOC(=O)C1=C(C)NC(=S)NC1c1cccc(O)c1` (centres undefined) [MONASTROL], the GI50 in the assay on MDA-MB-435 was 17.2 µM (inactive); with MDA-N it was 18.2 µM (inactive).
For the compound `N#CCc1c(-c2ccccc2)n(S(=O)(=O)c2ccccc2)c2ccccc12`, the GI50 in the assay with DMS-273, with KM-20L2, in the assay with DLD-1 and in the assay with M19-MEL was > 100 µM (inactive) throughout.
As for `CC/C(Cl)=N\OC(=O)Nc1ccc(OC)cc1`, the GI50 was 8.04 µM (inactive) with MDA-MB-435 and 6.14 µM (inactive) with MDA-N.
As to `COC12c3ccccc3-c3ccccc3C1[C@H]1C(=O)OC(=O)[C@H]12` (some centres undefined), the GI50 with MDA-MB-435 and in the assay with MDA-N was > 10 µM (inactive) throughout.
Take `Cc1ccc2nc(-c3ccccc3)c(N=O)n2c1`: the GI50 in the assay with MDA-MB-435 is 40 µM (inactive).
`CCOc1ccc(Nc2nc3c(s2)C(=O)c2ccccc2C3=O)cc1`: the figures for the GI50 in the assay with MDA-MB-435 and in the assay on MDA-N were 1.79 µM (inactive) and 1.96 µM (inactive), respectively.
In the case of `CC(=O)OC1CC2CC(=O)CC1N2C` (centres undefined), the GI50 with MDA-MB-435 and in the assay on MDA-N was > 100 µM (inactive) in each case.
On to `C[C@H](CCC(=O)NCC(=O)O)[C@H]1CC[C@H]2[C@@H]3[C@H](O)C[C@@H]4C[C@H](O)CC[C@]4(C)[C@H]3CC[C@]12C`, for which the GI50 in the assay on MDA-MB-435 and with MDA-N was > 100 µM (inactive) throughout.
On to `CC1CCC2CC1NC(=O)CCOCCC(=O)NC2(C)C` (centres undefined), for which the GI50 in the assay on MDA-MB-435 and with MDA-N was > 100 µM (inactive) throughout.
As for `Nc1nnc2oc3ccc4ccccc4c3cc1-2`, the values for the GI50 in the assay with MDA-MB-435 and in the assay with MDA-N were 24.3 µM (inactive) and 34 µM (inactive), respectively.
As to `NNC(=S)N/N=C/C(Cl)=C(\Cl)C(=O)O`, the GI50 in the assay with DMS-273, with KM-20L2, in the assay on SNB-78, with DLD-1 and in the assay with M19-MEL was > 100 µM (inactive) each time.
In the case of `O=C1CCC(c2ccccc2)=NN1c1nc2ccccc2s1`, the GI50 is 40.2 µM (inactive) in the assay on DMS-273; 41.2 µM (inactive) in the assay on SNB-78; 34.1 µM (inactive) with DLD-1; 23.3 µM (inactive) in the assay with MDA-MB-435; 27.9 µM (inactive) in the assay with MDA-N; 18.8 µM (inactive) in the assay with HOP-18. Further, in the assay on M19-MEL, the GI50 was 28.3 µM (inactive).
`COC1OC(CBr)C(OC(=O)c2ccccc2)C(OS(=O)(=O)c2ccc(C)cc2)C1Br` (centres undefined): the GI50 in the assay with DMS-273, in the assay with KM-20L2, in the assay on SNB-78 and in the assay with M19-MEL was > 100 µM (inactive) throughout.
On to `O=C1c2c(c3c4ccccc4n4c3c3c2c2ccccc2n3C/C=C\C4)C(=O)N1Cc1ccccc1`, for which the GI50 in the assay on KM-20L2, in the assay with DLD-1, with HOP-18 and in the assay on M19-MEL was > 100 µM (inactive) in each case.
Take `COc1cccc(C[C@H]2COC(=O)[C@]2(O)Cc2cccc(OC)c2)c1`: the GI50 in the assay with MDA-MB-435 and with MDA-N was > 100 µM (inactive) throughout.
With `COc1c(Cl)ccc(Cl)c1-c1nnc(-c2c(Cl)c(Cl)c(Cl)c(Cl)c2-c2nc3cc(C(=O)c4ccccc4)ccc3[nH]2)o1`, the GI50 in the assay with MDA-MB-435 is 21.4 µM (inactive); with MDA-N, 20 µM (inactive).
For `CC(C)(C)c1ccc(-c2nnc(SCc3ccc(Cl)cc3)n2-c2cccc(C(F)(F)F)c2)cc1`, the GI50 was 11.9 µM (inactive) with MDA-MB-435 and 24.2 µM (inactive) with MDA-N.
Consider `CN(C)c1ccc(/C=C2\C[C@H]3[C@@H]4CC=C5C[C@@H](O)CC[C@]5(C)[C@H]4CC[C@]3(C)C2=O)cc1`, for which, in the assay on MDA-N, the GI50 was 32.4 µM (inactive).
`O=C(Nc1ccc2oc(=O)c(C(=O)O)cc2c1)Oc1ccccc1`: the GI50 in the assay with MDA-MB-435 is > 100 µM (inactive).
Consider `CC(=O)OCC1OC(n2c3c(cc(C#N)c2=S)CCC3)C(OC(C)=O)C(OC(C)=O)C1OC(C)=O` (centres undefined), for which the GI50 with MDA-MB-435 and with MDA-N was > 100 µM (inactive) throughout.
As for `CC(=O)OCC(OC(C)=O)C(OC(C)=O)C(OC(C)=O)C(/C=N\Nc1nc2ccccc2c(=O)[nH]1)OC(C)=O` (centres undefined), the GI50 with MDA-MB-435 and with MDA-N was > 100 µM (inactive) in each case.
For `CC(=O)N(CCc1ccccc1)C(C)(C#N)c1ccccc1` (centres undefined), the GI50 in the assay on MDA-MB-435 and in the assay on MDA-N was > 100 µM (inactive) each time.
With `O=S(=O)(O)c1ccccc1/N=N\c1ccc(/N=N/c2c(O)ccc3ccccc23)c(S(=O)(=O)O)c1`, in the assay on MDA-MB-435, the GI50 is > 100 µM (inactive).
In the case of `Cc1sccc1C(=S)Nc1ccc(Cl)c(/C=N/OC(C)(C)C)c1`, the figures for the GI50 in the assay on MDA-MB-435 and in the assay on MDA-N were 21.7 µM (inactive) and 13.3 µM (inactive), respectively.
With `O=C(NCc1cccs1)OC1CC2CCC1C2` (centres undefined), the GI50 in the assay on MDA-MB-435 and in the assay on MDA-N was > 100 µM (inactive) throughout.
Take `C[C@H]1[C@@H](c2ccccc2)O[B-](c2ccccc2)(c2ccccc2)[N+]1(C)C`: the values for the GI50 in the assay on MDA-MB-435 and in the assay on MDA-N were 61.8 µM (inactive) and 48.8 µM (inactive), respectively.
